From ChEMBL document CHEMBL1137036, “Synthesis and evaluation of 2-amino-8-alkoxy quinolines as MCHr1 antagonists. Part 3” (Bioorg Med Chem Lett, 2004) come the findings set out here.

Broadly, the Kp is tissue or fluid exposure divided by exposure in the circulation. Usually AUC stands for the area under the concentration-time curve, a measure of exposure. The low end stands for less exposure, the high end for more exposure. By pIC50 is commonly meant the negative decadic logarithm of the IC50, by convention in mol/L. A low value points to a large IC50. A word on the Cmax: it is the highest concentration seen after dosing. By half-life is commonly meant how long it takes for the measured level to halve. A higher half-life goes with slow decline.

Data set [1] in a line: Brain/plasma ratio was determined in diet-induced obese (DIO) mice. The data set is classed as ADME, cell-free. As to conditions: mouse, brain and plasma.
Data set [2] in a line: Area under curve in brain was determined in diet-induced obese (DIO) mice. The data set is classed as ADME, tissue-based. As to conditions: mouse, in vivo.
In data set [3] the target is T1, Melanin-concentrating hormone receptor 1 (Homo sapiens, UniProt Q99705). As to the kind of experiment: Concentration required to inhibit binding of [125I]MCH radioligand to human Melanin-concentrating hormone receptor 1 in IMR-32 I3.4.2 cell membranes.
For data set [4], the target named is T1, Melanin-concentrating hormone receptor 1. As to the kind of experiment: Concentration required to inhibit 50% of melanin-concentrating hormone induced [Ca2+] flux in IMR-32 cells measured by using a fluorometric imaging plate reader. The data set is classed as functional, cell-based.
The nature of data set [5]: Area under curve in brain was determined at the peroral dose of 10 mg/kg in diet-induced obese (DIO) mice; unit may be ng.h/mL or ng.h/g. The data set is classed as ADME, organism-based. On the set-up: dose 10 mg/kg, route oral. As to conditions: mouse, in vivo, po.
Data set [6] can be described thus: Maximum concentration in brain was determined at the peroral dose of 10 mg/kg in diet-induced obese (DIO) mice; unit may be ng/mL or ng/g. The data set is classed as ADME, organism-based. Details: dose 10 mg/kg, route oral. The following applies: mouse, po.
Data set [7] is described as follows: Half life in brain was determined at the peroral dose of 10 mg/kg in diet-induced obese (DIO) mice. The data set is classed as ADME, organism-based. Details: dose 10 mg/kg, route oral. The following applies: mouse, po.
Data set [8] can be described thus: Half life in plasma was determined at the peroral dose of 10 mg/kg in diet-induced obese (DIO) mice. The data set is classed as ADME, organism-based. On the set-up: dose 10 mg/kg, route oral. As to conditions: mouse, po.
Data set [9] is described as follows: Maximum concentration in plasma was determined at the peroral dose of 10 mg/kg in diet-induced obese (DIO) mice; unit may be ng/mL or ng/g. As to conditions: mouse, po. The data set is classed as ADME, organism-based. Details: dose 10 mg/kg, route oral.
A short description of data set [10]: Area under curve in plasma was determined at the peroral dose of 10 mg/kg in diet-induced obese (DIO) mice; unit may be ng.h/mL or ng.h/g. The data set is classed as ADME, organism-based. Details: dose 10 mg/kg, route oral. The following applies: mouse, in vivo, po.

pIC50: −log10 of the molar value.

T1 sequence (Q99705 whole entry): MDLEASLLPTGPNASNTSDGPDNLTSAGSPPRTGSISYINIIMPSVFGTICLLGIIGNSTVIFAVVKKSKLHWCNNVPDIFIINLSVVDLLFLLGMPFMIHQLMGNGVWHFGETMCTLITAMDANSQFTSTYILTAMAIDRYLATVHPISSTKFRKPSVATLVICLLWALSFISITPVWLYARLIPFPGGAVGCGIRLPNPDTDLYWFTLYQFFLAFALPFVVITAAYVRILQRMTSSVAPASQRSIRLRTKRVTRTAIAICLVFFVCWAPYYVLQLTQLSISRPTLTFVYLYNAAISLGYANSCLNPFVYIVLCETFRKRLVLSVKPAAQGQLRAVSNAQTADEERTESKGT

Regarding `Nc1ccc2cccc(OCCCNCc3ccc(Cl)c(C(F)(F)F)c3)c2n1`, in [1], the Kp amounted to 0.96. This molecule also showed an AUC in data set [2] of 9520 ng·h/mL.

Regarding `CC(C)(C)c1ccc(CN2CC[C@H](Oc3cccc4ccc(N)nc34)C2)cc1`, the figures for the pIC50 in data set [3] and in [4] were 9.00 and 7.52, respectively.

As for `Nc1ccc2cccc(O[C@H]3CCN(C(=O)c4ccc5c(c4)OCO5)C3)c2n1`, the results for the pIC50 in data set [3] and in data set [4] were 6.14 and 5.04, respectively.

Regarding `CC(=O)Nc1ccc(CN2CC[C@H](Oc3cccc4ccc(N)nc34)C2)cc1`, the pIC50 in [3] is 7.05; in data set [4], 5.90.

Turning to `CC(Cc1ccc2c(c1)OCO2)N1CCC(Oc2cccc3ccc(N)nc23)C1` (stereo not drawn), the pIC50 in data set [3] was 8.66; in [4], 7.10.

Turning to `CC(C)Cc1ccc(N2CCC(Oc3cccc4ccc(NCC5CC5)nc34)C2)cc1` (stereo not drawn), the pIC50 in [3] was 6.83; in data set [4] it was less than 5.00.

Regarding `CNc1ccc2cccc(OC3CCN(c4ccc5c(c4)OCCO5)C3)c2n1` (stereo not drawn), the pIC50 in data set [3] is 7.59; in data set [4], 6.61.

On to `Nc1ccc2cccc(OCCCNC(=O)c3cccc(Cl)c3)c2n1`, for which the pIC50 in [4] is 8.15. Moreover, the Kp in [1] turned out to be 0.03. The molecule also came in with an AUC in data set [2] of 11 ng·h/mL.

Consider `CC(C)(C)c1ccc(S(=O)(=O)N2CC[C@H](Oc3cccc4ccc(N)nc34)C2)cc1`, for which the pIC50 was 6.68 in [3] and 5.94 in data set [4].

`Nc1ccc2cccc(O[C@@H]3CCN(c4ccc5c(c4)OC(F)(F)O5)C3)c2n1`: the pIC50 in data set [3] is 7.41; in data set [4], 6.27.

As for `CC(C)Cc1ccc(N2CCC(Oc3cccc4ccc(N)nc34)C2)cc1` (stereo not drawn), the figures for the pIC50 in data set [3] and in [4] were 8.92 and 7.27, respectively.

In the case of `Nc1ccc2cccc(O[C@@H]3CCN(Cc4ccccc4)C3)c2n1`, the pIC50 in data set [3] was 6.24; in data set [4], less than 5.00.

Consider `CC(C)Cc1ccc(N2CCC(Oc3cccc4ccc(NCc5ccc(-c6cccc(C(F)(F)F)c6)o5)nc34)C2)cc1` (stereo not drawn), for which the pIC50 in data set [3] and in [4] was 7.39 in each case.

For the molecule `Nc1ccc2cccc(O[C@H]3CCN(Cc4ccc5c(c4)OCO5)C3)c2n1`, the values for the AUC in data set [5] and in data set [10] were 1710 ng·h/mL and 1350 ng·h/mL, respectively. Also, the results for the Cmax in [6] and in [9] were 183 ng/mL and 543 ng/mL, respectively. Further, the negative-log IC50 (pIC50) in data set [3] is 7.15; in [4], 7.52. For the same molecule, the half-life in data set [7] was 8.3 h; in [8], 6.5 h.

Turning to `CCC(c1ccccc1)N1CCC(Oc2cccc3ccc(N)nc23)C1` (stereo not drawn), the pIC50 in data set [3] is 7.69; in [4], 6.65.

With `Nc1ccc2cccc(OC3CCN(c4ccc5c(c4)OCCO5)C3)c2n1` (stereo not drawn), the values for the pIC50 in [3] and in data set [4] were 8.57 and 7.29, respectively.

With `Nc1ccc2cccc(O[C@@H]3CCN(Cc4ccc5c(c4)OCO5)C3)c2n1`, the pIC50 in data set [3] was 7.15; in [4] it was 5.80.

For `CN(C)c1ccc2cccc(OC3CCN(c4ccc5c(c4)OCO5)C3)c2n1` (stereo not drawn), the pIC50 in [3] was less than 5.70; in data set [4] it was less than 5.00.

Take `Nc1ccc2cccc(OC3CCN(c4ccc5c(c4)OC(F)(F)O5)C3)c2n1` (stereo not drawn): the AUC amounted to 17700 ng·h/mL in [5] and 801 ng·h/mL in [10]. For the same molecule, the values for the Cmax in data set [6] and in [9] were 2860 ng/mL and 331 ng/mL, respectively. Moreover, the pIC50 in [3] was 9.05; in data set [4], 7.65. The results for the half-life in data set [7] and in data set [8] were 5.1 h and 4.6 h, respectively.

Regarding `Nc1ccc2cccc(O[C@H]3CCN(Cc4ccccc4)C3)c2n1`, the pIC50 in data set [3] was 6.92; in data set [4] it was 5.77.
